Here are results for 2 compounds from ChEMBL document CHEMBL3046535, “Evaluation of some weed control treatments for long season weed control in maize (Zea mays L.) under zero and minimum tillage at Samaru, in Nigeria” (Crop Prot, 2008).

SMILES strings stand for the structures.

What all share (assay type): organism-based
Series [1] deals with Zea mays. As to the kind of experiment: Toxicity in Zea mays TZBSR (maize) assessed as plant height at 1.5 kg a.i/ha applied post-emergence after ridgining at minimum tillage conditions using Knapsack sprayer measured 9 weeks post treatment. As to conditions: in vivo, other, 1512 h.
The subject of series [2] is Zea mays. In words: Toxicity in Zea mays TZBSR (maize) assessed as crop stand count at 1.5 kg a.i/ha applied post-emergence after ridgining at minimum tillage conditions using Knapsack sprayer measured 6 weeks post treatment. As to conditions: in vivo, other, 1008 h.
Series [3] relates to Zea mays. In words: Toxicity in Zea mays TZBSR (maize) assessed as crop vigour at 1.5 kg a.i/ha applied post-emergence after ridgining at minimum tillage conditions using Knapsack sprayer. The conditions noted are these: in vivo, other.
The test system of series [4] is Zea mays. In words: Toxicity in Zea mays TZBSR (maize) assessed as crop injury at 1.5 kg a.i/ha applied post-emergence after ridgining at minimum tillage conditions using Knapsack sprayer. The conditions noted are these: in vivo, other.

`O=C(O)COc1ccc(Cl)cc1Cl` [2,4-DICHLOROPHENOXYACETIC ACID]: the Activity in the series with Zea mays [1] is given as 3.33 m; with Zea mays [2] it was “Non-toxic”; in the series on Zea mays [3] it was “Non-toxic”; with Zea mays [4], “Non-toxic”.
On to `CCNc1nc(Cl)nc(NC(C)C)n1` [ATRAZINE], for which the Activity in the series on Zea mays [1] was 3.35 m; with Zea mays [3], “Non-toxic”; in the series on Zea mays [4] it was “Non-toxic”.
